This is an account of results in publication PMC6278656, “Synthesis and Biological Evaluation of Phaeosphaeride A Derivatives as Antitumor Agents” (Molecules, 2018).

The nature of data set [1]: Acute intraperitoneal toxicity study. The data set is classed as in vivo. The settings on record: male, outbred (printed 'outbreed'), mouse, in vivo, ip, mice, single i.p. injection, 14 days. How it is done: (§1) Six to eight-week-old outbreed male mice were purchased from the Rappolovo Animal Farm of the Russian Academy of Sciences. Animals were group housed in solid bottom polycarbonate cages (3–5 animals/cage) and provided with sterilized pelleted food and pure water ad libitum.
(§2) Thirty mice were randomly assigned to the acute toxicity study. Animals in experimental groups ([…]) received a dose formulation containing compound 6 solution in 5% DMSO at various dosages (8.25, 82.5 and 200 mg/kg) via single i.p. injection. Mice in the control group treated with vehicle (5% DMSO). The location of the i.p. injection was in the lower left abdominal quadrant. […] After treatments, the following parameters and end points were evaluated for 14 days: mortality, clinical signs, body weight, food consumption, locomotion, salivation, diarrhea, and lethargy. The maximum tolerated dose in this study is defined as the highest dose that will be tolerated and not produce major life-threatening toxicity for the study duration. All experimental procedures were performed according to the principles and guidelines for the care and use of laboratory animals. The animals were sacrificed by carbon dioxide asphyxiation and cervical dislocation. All efforts were made to minimize suffering. Post mortem evaluation included gross examination for all animals at terminal necropsy and calculation of organ mass coefficients. No histopathological examinations were performed.

Data set [2] has as its system mice. Nature of the data set: Acute intraperitoneal toxicity study. The data set is classed as in vivo. How it is done: as §1, §2
The subject of data set [3] is human breast cancer MCF-7 cells. Nature of the data set: MTT cytotoxicity assay, MCF-7. The settings on record: MCF7, 72 h, n = 3, ± SD, read-out: Adhesive Cell Cultures, IC50 MCF-7. The data set is classed as cell-based. How it is done:
(§3) All newly synthesized PPA derivatives 1–8 were evaluated for their anti-proliferative activity against human breast cancer MCF-7, human prostate adenocarcinoma PC-3, human colorectal cancer HCT-116, human lung cancer A549, human chronic myelogenous leukemia K562, human acute monocytic leukemia THP-1, human multiple myeloma RPMI8226, human acute T-cell leukemia Jurkat, human multiple myeloma NCI-H929, and human embryonic fibroblasts HEF cell lines by MTT assays. All cells were incubated with different concentrations of PPA derivatives for 72 h, with etoposide and PPA used as reference compounds. The anticancer activity of the tested compounds was described as the concentration of drug inhibiting 50% cell growth IC50 (Table 1 and Table 2).
(§4) ^1H-NMR spectra were acquired on an AVANCE III 400 MHz NMR spectrometer (Bruker, Rheinstetten, Germany) in CDCl3. Optical rotations were acquired on a Polaar 3005 Polarimeter (Optical Activity, Huntingdon, Great Britain) using a 2.5 cm cell with a Na 589 nm filter and the concentration of samples was denoted as c. Mass spectra data were acquired on a TSQ Quantum Access Max Mass spectrometer (Thermo Fisher Scientific, Waltham, MA, USA). High-resolution mass spectra (HRMS) were acquired on a LTQ Orbitrap Velos spectrometer (Thermo Scientific) and on a Bruker MicrOTOF. FTIR spectra were acquired on an IR Affinity-1 spectrometer (Shimadzu, Thermo Scientific). Organic solvents used were dried by standard methods when necessary. Commercially available reagents were used without further purification. All reactions were monitored by TLC with silica gel coated plates (EMD/Merck KGaA, Darmstadt, Germany), with visualization by UV light and by charring with 0.1% ninhydrin in EtOH. Column chromatography was performed using Merck 60 Å 70–230 mesh silica gel. The optical density was determined using a Multiskan FC spectrophotometer (Thermo Scientific) at a wavelength of 540 nm when using the MTT assay.
(§5) MCF-7 (breast cancer), PC-3 (prostate adenocarcinoma), HCT-116 (colorectal cancer cell), A549 (lung cancer), K562 (chronic myelogenous leukemia), THP-1 (acute monocytic leukemia), and RPMI8226 (multiple myeloma), Jurkat (acute T-cell leukemia), HEF (human embryonic fibroblasts) was purchased from the Russian Academy of Sciences Cells Bank (Institute of Cytology of the Russian Academy of Sciences, Saint Petersburg, Russian Federation). Multiple myeloma cell line NCI-H929 was purchased from ATCC (USA). The MCF-7, A549 and HEF (human embryonic fibroblasts) were cultured in DMEM medium. Other cell lines were cultured in RPMI1640 medium, (PanEco, Russia) supplemented with 10% fetal bovine serum (GE Healthcare LifeSciences, São Paulo, Brazil), and gentamicin at a concentration of 40 μg/mL and cultured at 37 °C in a humidified atmosphere containing 5% CO2. All experiments were performed with cells at passages 3 to 7 in the logarithmic phase of growth.
(§6) Cells were seeded into 96-well plates of 5 × 10^3 for adhesive cultures and 20 × 10^3 for suspension cultures per well in 90 μL and 135 μL of culture medium, respectively. The test substances were dissolved in DMSO to a concentration of 1 × 10^−2 M. For subsequent dilution of the substances, a serum-free culture medium was used as the diluent. Final concentration of DMSO in wells was no more than 1%. […] Substances were added to the cells in 3–4 replicates after 24 h for adhesive cultures and immediately for suspension cultures. 10–15 μL of serum-free medium was added to the control wells with non-exposed cells. Cells were cultured for 72 h at 37 °C in an atmosphere of 5% CO2.

In data set [4] the test system is human chronic myelogenous leukemia K562 cells. Nature of the data set: MTT cytotoxicity assay, K562. The data set is classed as cell-based. The note with it: for IC50: Homo sapiens, MTT, 72 h, n = 3, ± SD, read-out: Suspension Cell Cultures, IC50 К562. How it is done:
as §3, §4, §5, §6
(Tetrazolium assays rely on reduction of a dye to a coloured formazan, in cell work by metabolically active cells.)

For data set [5], the system named is human lung cancer A549 cells. Nature of the data set: MTT cytotoxicity assay, A549. It counts as cell-based. The note with it: 72 h, n = 3, ± SD, read-out: Adhesive Cell Cultures, IC50 A549. How it is done:
as §3, §4, §5, §6

Data set [6] deals with human colorectal cancer HCT-116 cells. As to the kind of experiment: MTT cytotoxicity assay, HCT-116. It counts as cell-based. The note with it: for IC50: Homo sapiens, MTT, 72 h, n = 3, ± SD, read-out: Adhesive Cell Cultures, IC50 HCT-116. How it is done: as §3, §4, §5, §6
In data set [7] the test system is human embryonic fibroblasts HEF. Nature of the data set: MTT cytotoxicity assay, HEF (control cells). The data set is classed as cell-based. The settings on record: Fibroblast, 72 h, n = 3, ± SD, read-out: Adhesive Cell Cultures, IC50 HEF. How it is done: as §3, §4, §5, §6
For data set [8], the system named is human acute monocytic leukemia THP-1 cells. Nature of the data set: MTT cytotoxicity assay, THP-1. The data set is classed as cell-based. The note with it: 72 h, n = 3, ± SD, read-out: Suspension Cell Cultures, IC50 THP-1. How it is done:
as §3, §4, §5, §6

The subject of data set [9] is human multiple myeloma NCI-H929 cells. Nature of the data set: MTT cytotoxicity assay, NCI-H929. The settings on record: for IC50: Homo sapiens, MTT, 72 h, n = 3, ± SD, read-out: Suspension Cell Cultures, IC50 NCI-Н929. The data set is classed as cell-based. How it is done:
as §3, §4, §5, §6

Data set [10] concerns human prostate adenocarcinoma PC-3 cells. As to the kind of experiment: MTT cytotoxicity assay, PC-3. The settings on record: for IC50: Homo sapiens, MTT, 72 h, n = 3, ± SD, read-out: Adhesive Cell Cultures, IC50 PC-3. It counts as cell-based. How it is done:
as §3, §4, §5, §6

In data set [11] the test system is human multiple myeloma RPMI8226 cells. Nature of the data set: MTT cytotoxicity assay, RPMI8226. It counts as cell-based. The settings on record: for IC50: Homo sapiens, RPMI-8226, MTT, 72 h, n = 3, ± SD, read-out: Suspension Cell Cultures, IC50 RPMI8228. How it is done:
as §3, §4, §5, §6

Data set [12] relates to human acute T-cell leukemia Jurkat cells. As to the kind of experiment: MTT cytotoxicity assay, Jurkat. The data set is classed as cell-based. The settings on record: for IC50: Homo sapiens, MTT, 72 h, n = 3, ± SD, read-out: Suspension Cell Cultures, IC50 Jurkat. How it is done:
as §3, §4, §5, §6

The test system of data set [13] is mice. More on the design: method as in RTECS # KC0190000. The settings on record: i.p., ref RTECS # KC0190000; cited from earlier work.

Where only a bound is given, the exact number is not on record here.

For `C=C1C2=C(C(=O)N1OC)[C@@H](N1CCCC1)[C@@](C)(O)[C@H](CCCCC)O2` [Compound 6, (2S,3R,4R)-3-Hydroxy-6-methoxy-3-methyl-7-methylene-2-pentyl-4-pyrrolidin-1-yl-3,4,6,7-tetrahydro-pyrano[2,3-c]pyrrol-5(2H)-one], the 50% lethal dose (LD50) at 14 days in [1] (not determined, believed to be more than, read-out: Median lethal dose (LD50)) is above 200 mg/kg. Further, in data set [1] (read-out: Maximum tolerated dose), the MTD at 14 days was at least 82.5 mg/kg. Moreover, the “toxicity in vivo comparative to etoposide” value in the data set with mice [2] (mice, i.p.) was “less toxic”. Moreover, the “effect on mean body weight or mass coefficients (spleen, liver, heart, kidney, lung, thymus, and adrenal)” value in the data set with mice [2] (mouse, in vivo, ip) was “No effect”. The “gross abnormalities in the organs tested” value in the data set with mice [2] (mouse, in vivo, ip) is “No gross abnormalities”. Besides, the IC50 stood at 3250 ± 640 nM in data set [3]; 540 ± 30 nM in data set [4]; 10100 ± 500 nM in data set [5]; 470 ± 10 nM in data set [6]; 4000 ± 170 nM in data set [7]; 2050 ± 210 nM in [8]. Also, the IC50 was determined as 230 ± 20 nM in [9], 200 ± 70 nM in data set [10], 630 ± 230 nM in data set [11] and 550 ± 290 nM in data set [12]. Besides, the “fold increase in anticancer activity comparative to etoposide” value is listed as 16 fold in [4]; 47 fold in [6]; 4 fold in [9]; 13.5 fold in data set [10]; 7 fold in [11] (RPMI8226); 1.5 fold in data set [12]. The “fold stronger than the reference compound PPA” value is 37 fold in data set [4]; 51 fold in [6]; 28 fold in data set [9]; 160 fold in data set [10]; 14.5 fold in [11] (RPMI8226); 17.5 fold in data set [12].

For the compound `COc1cc([C@@H]2c3cc4c(cc3[C@@H](O[C@@H]3O[C@@H]5CO[C@@H](C)O[C@H]5[C@H](O)[C@H]3O)[C@H]3COC(=O)[C@H]23)OCO4)cc(OC)c1O` [Etoposide, etoposide, reference compound], the “Intraperitoneal LD50” value with mice [13] is on record as 64 mg/kg. Besides, the concentration for half-maximal inhibition (IC50) in [3] is 9600 ± 270 nM; in [4], 8470 ± 950 nM; in data set [5], above 100000 nM; in data set [6] it was 22000 ± 1100 nM; in [7], above 100000 nM; in data set [8], 830 ± 210 nM. In addition, the IC50 stood at 920 ± 30 nM in data set [9], 2700 ± 50 nM in data set [10], 4600 ± 280 nM in [11] and 880 ± 740 nM in data set [12].

By LD50 is commonly meant the dose expected to kill half of the subjects tested. As a reminder, the IC50 is the concentration that inhibits the measured activity by half.
